Patent US8981114B2, “Derivatives of 1-(substituted sulfonyl)-2-aminoimidazoline as antitumor and antiproliferative agents” (OncoArendi Therapeutics Sp. z.o.o., priority 2013, dated 2015)
Where two headings read alike, the source gives them in different places.

System: colon human tumor (HT-29) cells
Assay: Cell growth inhibitory activity, standard MTT assay
Type: cell-based
Conditions: MTT assay after 72 hr exposure, 0.1% DMSO, read-out: IC50 range
Description: Cell growth inhibitory activity of compounds of this invention was determined using a standard MTT assay. Adherent cells of colon human tumor (HT-29) sourced from ATCC (cells number: HTB-38) were treated with DMSO solutions of tested compounds with the ultimate concentration of DMSO in the test solution being 0.1%. Following the 72 hour long treatment MTT was added, and after a brief incubation the resulting formazan was dissolved in addional DMSO and the solutions were scanned using 570 nm wavelength.

IC50 [nM] | IC50 (Homo sapiens) [nM] | SMILES
< 100 | – | CC1Cc2cc(S(=O)(=O)N3CC(c4ccccc4)N=C3N)ccc2N1C(=O)c1ccc(N)cc1 (mixture of isomers) [Example 54]
< 100 | – | NC1=N[C@@H](c2ccccc2)CN1S(=O)(=O)c1ccc2c(c1)CCN2C(=O)c1ccco1 [Example 35]
< 100 | – | CC(C)[C@H]1CN(S(=O)(=O)c2ccc3c(c2)CCN3C(=O)c2ccco2)C(N)=N1 [Example 36]
< 100 | – | NC1=N[C@@H](C2CCCCC2)CN1S(=O)(=O)c1ccc2c(c1)CCN2C(=O)c1ccco1 [Example 37]
< 100 | – | NC1=N[C@@H](c2ccccc2)CN1S(=O)(=O)c1ccc2c(c1)CCN2C(=O)c1cccs1 [Example 38]
100 to 500 | – | CC(=O)N1CCc2cc(S(=O)(=O)N3C[C@H](c4ccccc4)N=C3N)ccc21 [Example 39]
< 100 | – | CCC(=O)N1CCc2cc(S(=O)(=O)N3C[C@H](c4ccccc4)N=C3N)ccc21 [Example 40]
< 100 | – | CCCC(=O)N1CCc2cc(S(=O)(=O)N3C[C@H](c4ccccc4)N=C3N)ccc21 [Example 41]
< 100 | – | CC(C)C(=O)N1CCc2cc(S(=O)(=O)N3C[C@H](c4ccccc4)N=C3N)ccc21 [Example 42]
< 100 | – | NC1=N[C@@H](c2ccccc2)CN1S(=O)(=O)c1ccc2c(c1)CCN2C(=O)Cc1cccs1 [Example 43]
< 100 | – | NC1=N[C@@H](c2ccccc2)CN1S(=O)(=O)c1ccc2c(c1)CCN2C(=O)c1ccccc1 [Example 44]
< 100 | – | CN(C)c1ccc(C(=O)N2CCc3cc(S(=O)(=O)N4C[C@H](c5ccccc5)N=C4N)ccc32)cc1 [Example 46]
< 100 | – | CCOc1ccc(C(=O)N2CCc3cc(S(=O)(=O)N4C[C@H](c5ccccc5)N=C4N)ccc32)cc1 [Example 47]
< 100 | – | NC1=N[C@@H](c2ccccc2)CN1S(=O)(=O)c1ccc2c(c1)CCN2C(=O)Cc1ccccc1 [Example 48]
< 100 | – | COC(=O)N1CCc2cc(S(=O)(=O)N3C[C@H](c4ccccc4)N=C3N)ccc21 [Example 49]
< 100 | – | CC(=O)N1CCC(C(=O)N2CCc3cc(S(=O)(=O)N4C[C@H](c5ccccc5)N=C4N)ccc32)CC1 [Example 50]
< 100 | – | NC1=N[C@@H](c2ccccc2)CN1S(=O)(=O)c1ccc2c(c1)CCN2C(=O)C1CCCCC1 [Example 51]
< 100 | – | NC1=N[C@@H](c2ccccc2)CN1S(=O)(=O)c1ccc2c(c1)CCN2C(=O)c1cccc2ccccc12 [Example 52]
< 100 | – | CC(C)NC(=S)N1CCc2cc(S(=O)(=O)N3C[C@H](c4ccccc4)N=C3N)ccc21 [Example 55]

IC50 [nM] | IC50 (Homo sapiens) [nM] | SMILES
< 100 | – | CCCC(=O)N1CCCc2cc(S(=O)(=O)N3C[C@H](c4ccccc4)N=C3N)ccc21 [Example 56]
> 500 | – | CCCC(=O)N1CCc2cc(S(=O)(=O)N3C[C@@H](c4ccccc4)N=C3N)ccc21 [Example 57]
> 500 | – | COc1ccc([C@H]2CN(S(=O)(=O)c3ccc4c(c3)CCN4C(=O)c3cccn3C)C(N)=N2)cc1 [Example 62]
< 100 | – | Cn1cccc1C(=O)N1CCc2cc(S(=O)(=O)N3C[C@H](c4ccccc4Cl)N=C3N)ccc21 [Example 64]
100 to 500 | – | Cc1cccc([C@H]2CN(S(=O)(=O)c3ccc4c(c3)CCN4C(=O)c3cccn3C)C(N)=N2)c1 [Example 65]
< 100 | – | NC1=N[C@@H](c2ccccc2)CN1S(=O)(=O)c1ccc2c(c1)CCN2 [Example 70]
100 to 500 | – | COCCNC(=O)N1CCc2cc(S(=O)(=O)N3CCN=C3N)ccc21 [Example 76]
< 100 | – | CCCNC(=O)N1CCc2cc(S(=O)(=O)N3C[C@H](c4ccccc4)N=C3N)ccc21 [Example 82]
< 100 | – | CCCNC(=O)N1CCc2cc(S(=O)(=O)N3C[C@H](c4ccc(F)cc4)N=C3N)ccc21 [Example 83]
100 to 500 | – | CCCNC(=O)N1CCc2cc(S(=O)(=O)N3C[C@H](c4ccc(OC)cc4)N=C3N)ccc21 [Example 84]
< 100 | – | CCCNC(=O)N1CCc2cc(S(=O)(=O)N3C[C@H](c4ccccc4C)N=C3N)ccc21 [Example 87]
< 100 | – | CCCCNC(=O)N1CCc2cc(S(=O)(=O)N3C[C@H](c4ccccc4)N=C3N)ccc21 [Example 89]
< 100 | – | CCCCNC(=O)N1CCc2cc(S(=O)(=O)N3C[C@H](c4cccc(Cl)c4)N=C3N)ccc21 [Example 93]
< 100 | – | CCCCNC(=O)N1CCc2cc(S(=O)(=O)N3C[C@H](c4ccccc4C)N=C3N)ccc21 [Example 95]
100 to 500 | – | CCCCNC(=O)N1CCc2cc(S(=O)(=O)N3C[C@H](c4ccc(Cl)cc4)N=C3N)ccc21 [Example 97]
– | < 100 | CC(C)NC(=O)N1CCc2cc(S(=O)(=O)N3C[C@H](c4ccccc4)N=C3N)ccc21 [Example 98]
< 100 | – | NC1=N[C@@H](c2ccccc2)CN1S(=O)(=O)c1ccc2c(c1)CCN2C(=O)NCC1CC1 [Example 100]
< 100 | – | CC(C)(C)CNC(=O)N1CCc2cc(S(=O)(=O)N3C[C@H](c4ccccc4)N=C3N)ccc21 [Example 102]

SMILES | IC50 [nM] | IC50 (Homo sapiens) [nM]
NC1=N[C@@H](c2ccccc2)CN1S(=O)(=O)c1ccc2c(c1)CCN2C(=O)c1cccnc1 [Example 53] | < 100 | –
